Some targets named below: Histamine H2 receptor (Homo sapiens, UniProt P25021); Substance-P receptor (Homo sapiens, UniProt P25103); D(1A) dopamine receptor (Homo sapiens, UniProt P21728).
Assay [1] deals with T1, Alpha-2A adrenergic receptor (Homo sapiens, UniProt P08913).
T1 sequence (P08913 whole entry): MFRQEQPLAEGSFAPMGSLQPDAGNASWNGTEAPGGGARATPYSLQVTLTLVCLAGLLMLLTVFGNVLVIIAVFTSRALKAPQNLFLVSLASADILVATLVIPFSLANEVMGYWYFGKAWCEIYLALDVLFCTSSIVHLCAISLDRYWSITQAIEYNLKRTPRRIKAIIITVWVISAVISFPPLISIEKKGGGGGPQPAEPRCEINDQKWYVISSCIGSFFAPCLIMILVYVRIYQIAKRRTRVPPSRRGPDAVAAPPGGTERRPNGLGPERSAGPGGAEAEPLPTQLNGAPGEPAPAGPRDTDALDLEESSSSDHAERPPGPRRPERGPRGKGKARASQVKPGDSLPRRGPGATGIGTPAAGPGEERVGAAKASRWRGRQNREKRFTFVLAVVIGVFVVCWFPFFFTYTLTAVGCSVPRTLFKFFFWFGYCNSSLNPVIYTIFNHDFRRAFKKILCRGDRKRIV

The target of assay [2] is 5-hydroxytryptamine receptor 6 (Homo sapiens, UniProt P50406).
Chain of 5-hydroxytryptamine receptor 6 (P50406 whole entry): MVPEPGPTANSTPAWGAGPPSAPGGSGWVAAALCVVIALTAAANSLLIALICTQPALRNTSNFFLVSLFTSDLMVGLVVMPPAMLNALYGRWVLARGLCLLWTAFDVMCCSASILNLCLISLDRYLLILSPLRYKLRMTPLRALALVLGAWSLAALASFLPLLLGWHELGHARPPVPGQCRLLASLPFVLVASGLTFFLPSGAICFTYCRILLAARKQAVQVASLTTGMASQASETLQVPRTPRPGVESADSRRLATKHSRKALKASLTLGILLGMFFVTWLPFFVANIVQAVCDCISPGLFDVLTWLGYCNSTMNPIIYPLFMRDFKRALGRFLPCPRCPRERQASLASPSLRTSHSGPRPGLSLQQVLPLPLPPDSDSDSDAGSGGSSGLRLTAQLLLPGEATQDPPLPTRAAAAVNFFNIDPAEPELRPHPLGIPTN
The target in assay [3] is Rod cGMP-specific 3',5'-cyclic phosphodiesterase subunit alpha (Homo sapiens, UniProt P16499). The class given is functional.
Chain of Rod cGMP-specific 3',5'-cyclic phosphodiesterase subunit alpha (P16499 whole entry): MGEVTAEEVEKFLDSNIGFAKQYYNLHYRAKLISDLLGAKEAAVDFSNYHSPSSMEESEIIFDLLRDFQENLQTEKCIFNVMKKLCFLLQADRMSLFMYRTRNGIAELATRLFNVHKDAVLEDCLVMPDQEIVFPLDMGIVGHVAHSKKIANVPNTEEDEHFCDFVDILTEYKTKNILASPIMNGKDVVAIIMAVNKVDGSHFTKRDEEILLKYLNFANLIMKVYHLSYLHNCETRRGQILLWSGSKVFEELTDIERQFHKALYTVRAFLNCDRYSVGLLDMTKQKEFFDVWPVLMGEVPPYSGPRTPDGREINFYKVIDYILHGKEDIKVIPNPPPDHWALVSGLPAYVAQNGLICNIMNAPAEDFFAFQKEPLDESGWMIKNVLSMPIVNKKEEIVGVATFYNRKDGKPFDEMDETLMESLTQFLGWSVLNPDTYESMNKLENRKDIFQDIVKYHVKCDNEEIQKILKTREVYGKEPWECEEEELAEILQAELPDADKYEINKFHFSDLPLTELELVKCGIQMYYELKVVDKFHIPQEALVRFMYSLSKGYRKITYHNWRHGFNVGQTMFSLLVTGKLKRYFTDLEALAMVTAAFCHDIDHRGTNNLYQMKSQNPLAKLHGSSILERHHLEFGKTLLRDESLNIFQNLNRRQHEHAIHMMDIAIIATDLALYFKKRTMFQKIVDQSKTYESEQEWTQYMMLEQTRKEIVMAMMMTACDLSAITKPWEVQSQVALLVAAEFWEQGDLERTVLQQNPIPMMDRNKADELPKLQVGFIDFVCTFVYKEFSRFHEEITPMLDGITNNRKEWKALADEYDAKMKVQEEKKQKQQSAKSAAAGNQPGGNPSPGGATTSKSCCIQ
Assay [4] has as its target Gamma-aminobutyric acid type B receptor subunit 1 (Homo sapiens, UniProt Q9UBS5).
For assay [5], the target named is T2, Gastric inhibitory polypeptide receptor (Homo sapiens, UniProt P48546).
T2 sequence (P48546 whole entry): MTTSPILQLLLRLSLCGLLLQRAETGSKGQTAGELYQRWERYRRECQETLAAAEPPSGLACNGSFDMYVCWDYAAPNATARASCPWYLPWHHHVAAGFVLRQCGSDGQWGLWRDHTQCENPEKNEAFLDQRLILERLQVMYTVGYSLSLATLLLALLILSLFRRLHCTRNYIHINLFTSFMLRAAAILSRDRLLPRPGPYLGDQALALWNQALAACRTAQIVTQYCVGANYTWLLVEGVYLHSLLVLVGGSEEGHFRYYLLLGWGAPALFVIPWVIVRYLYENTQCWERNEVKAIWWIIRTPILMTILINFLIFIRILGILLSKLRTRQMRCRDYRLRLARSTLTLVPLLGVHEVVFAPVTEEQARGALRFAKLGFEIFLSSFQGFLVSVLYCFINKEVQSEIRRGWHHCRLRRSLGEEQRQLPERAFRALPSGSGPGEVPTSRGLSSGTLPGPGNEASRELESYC

The target of the next assay is Histamine H1 receptor (Homo sapiens, UniProt P35367). The class given is functional, cell-based.
Chain of Histamine H1 receptor (P35367 whole entry): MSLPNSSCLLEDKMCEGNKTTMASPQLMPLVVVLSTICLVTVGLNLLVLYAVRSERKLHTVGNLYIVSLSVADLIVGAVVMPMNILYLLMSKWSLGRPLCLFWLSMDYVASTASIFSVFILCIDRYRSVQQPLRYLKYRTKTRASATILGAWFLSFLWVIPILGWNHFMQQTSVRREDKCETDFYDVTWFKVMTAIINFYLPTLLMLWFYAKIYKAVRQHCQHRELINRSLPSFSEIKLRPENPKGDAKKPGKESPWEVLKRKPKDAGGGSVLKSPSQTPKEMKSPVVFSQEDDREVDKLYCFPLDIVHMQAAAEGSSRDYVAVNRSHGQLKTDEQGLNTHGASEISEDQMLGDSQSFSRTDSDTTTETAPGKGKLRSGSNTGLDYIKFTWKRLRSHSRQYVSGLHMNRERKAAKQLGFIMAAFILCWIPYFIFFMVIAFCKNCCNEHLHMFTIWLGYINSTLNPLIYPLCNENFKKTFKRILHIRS
Assay [6] deals with T3, Endothelin receptor type B (Homo sapiens, UniProt P24530).
T3 sequence (P24530 whole entry): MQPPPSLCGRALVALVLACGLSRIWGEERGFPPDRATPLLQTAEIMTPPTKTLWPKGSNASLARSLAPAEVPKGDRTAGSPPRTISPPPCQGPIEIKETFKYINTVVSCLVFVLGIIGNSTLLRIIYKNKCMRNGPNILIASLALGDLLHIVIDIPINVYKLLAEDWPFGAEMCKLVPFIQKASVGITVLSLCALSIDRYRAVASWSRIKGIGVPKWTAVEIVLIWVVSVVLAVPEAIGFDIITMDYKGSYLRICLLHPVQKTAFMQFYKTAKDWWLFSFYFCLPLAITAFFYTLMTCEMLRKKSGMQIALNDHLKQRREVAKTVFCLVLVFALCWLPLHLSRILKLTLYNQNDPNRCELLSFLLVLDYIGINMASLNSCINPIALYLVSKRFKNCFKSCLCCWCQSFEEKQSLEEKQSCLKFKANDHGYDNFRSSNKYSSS

The target in a further assay is T4, B1 bradykinin receptor (Homo sapiens, UniProt P46663).
T4 sequence (P46663 whole entry): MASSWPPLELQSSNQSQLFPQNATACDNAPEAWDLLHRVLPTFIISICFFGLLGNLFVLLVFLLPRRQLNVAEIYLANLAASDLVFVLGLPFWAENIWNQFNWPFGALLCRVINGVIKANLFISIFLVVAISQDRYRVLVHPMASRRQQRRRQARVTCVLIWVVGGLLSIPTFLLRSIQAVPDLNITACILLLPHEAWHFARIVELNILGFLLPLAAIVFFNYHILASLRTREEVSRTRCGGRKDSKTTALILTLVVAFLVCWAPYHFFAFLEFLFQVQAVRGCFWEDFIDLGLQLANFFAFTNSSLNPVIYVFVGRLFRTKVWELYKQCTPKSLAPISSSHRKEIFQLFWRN

Assay [7] concerns the target Neurotensin receptor type 1 (Homo sapiens, UniProt P30989).
Assay [8] addresses Sodium channel protein type 5 subunit alpha (Homo sapiens, UniProt Q14524). The assay is classed as functional, cell-based.

One may read the AC50 as the midpoint of the concentration-response curve, whichever way the signal moves. A high value points to weaker potency.
Also: assay procedure not described here.

Chain of Gamma-aminobutyric acid type B receptor subunit 1 (Q9UBS5 whole entry): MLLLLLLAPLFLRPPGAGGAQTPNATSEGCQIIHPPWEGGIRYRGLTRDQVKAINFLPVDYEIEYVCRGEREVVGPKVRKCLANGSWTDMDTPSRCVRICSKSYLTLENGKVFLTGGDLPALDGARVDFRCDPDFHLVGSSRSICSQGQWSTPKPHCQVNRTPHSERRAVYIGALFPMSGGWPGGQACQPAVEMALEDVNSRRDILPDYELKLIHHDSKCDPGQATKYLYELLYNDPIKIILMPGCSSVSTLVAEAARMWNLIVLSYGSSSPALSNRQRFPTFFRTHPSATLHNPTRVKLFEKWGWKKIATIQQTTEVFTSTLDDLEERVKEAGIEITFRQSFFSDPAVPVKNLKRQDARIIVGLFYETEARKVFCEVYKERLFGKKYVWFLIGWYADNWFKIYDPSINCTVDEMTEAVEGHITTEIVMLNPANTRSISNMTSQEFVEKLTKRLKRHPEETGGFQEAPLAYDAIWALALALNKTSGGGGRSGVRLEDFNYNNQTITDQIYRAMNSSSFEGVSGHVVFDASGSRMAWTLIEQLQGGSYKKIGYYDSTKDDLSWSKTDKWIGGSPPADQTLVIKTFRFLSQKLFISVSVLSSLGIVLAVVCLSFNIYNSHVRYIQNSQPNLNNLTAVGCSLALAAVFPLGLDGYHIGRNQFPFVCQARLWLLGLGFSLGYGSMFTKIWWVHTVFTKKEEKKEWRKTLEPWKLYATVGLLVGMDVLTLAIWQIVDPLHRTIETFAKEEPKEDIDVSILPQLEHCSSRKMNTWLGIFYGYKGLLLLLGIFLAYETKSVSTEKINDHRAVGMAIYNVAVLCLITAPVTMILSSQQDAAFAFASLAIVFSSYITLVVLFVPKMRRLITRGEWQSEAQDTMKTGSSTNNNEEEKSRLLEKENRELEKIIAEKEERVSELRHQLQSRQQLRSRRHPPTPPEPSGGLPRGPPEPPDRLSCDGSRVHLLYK
Chain of Neurotensin receptor type 1 (P30989 whole entry): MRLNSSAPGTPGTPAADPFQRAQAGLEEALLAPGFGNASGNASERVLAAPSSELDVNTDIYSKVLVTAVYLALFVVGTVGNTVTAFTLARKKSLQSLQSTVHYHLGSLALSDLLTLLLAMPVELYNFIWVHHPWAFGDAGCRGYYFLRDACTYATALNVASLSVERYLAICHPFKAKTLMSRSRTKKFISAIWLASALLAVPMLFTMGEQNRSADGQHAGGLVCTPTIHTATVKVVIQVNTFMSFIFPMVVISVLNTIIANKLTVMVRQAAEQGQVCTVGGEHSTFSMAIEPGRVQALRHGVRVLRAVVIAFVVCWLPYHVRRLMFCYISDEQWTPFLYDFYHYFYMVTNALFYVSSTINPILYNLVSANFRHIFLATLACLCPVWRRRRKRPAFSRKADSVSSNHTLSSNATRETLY
Chain of D(1A) dopamine receptor (P21728 whole entry): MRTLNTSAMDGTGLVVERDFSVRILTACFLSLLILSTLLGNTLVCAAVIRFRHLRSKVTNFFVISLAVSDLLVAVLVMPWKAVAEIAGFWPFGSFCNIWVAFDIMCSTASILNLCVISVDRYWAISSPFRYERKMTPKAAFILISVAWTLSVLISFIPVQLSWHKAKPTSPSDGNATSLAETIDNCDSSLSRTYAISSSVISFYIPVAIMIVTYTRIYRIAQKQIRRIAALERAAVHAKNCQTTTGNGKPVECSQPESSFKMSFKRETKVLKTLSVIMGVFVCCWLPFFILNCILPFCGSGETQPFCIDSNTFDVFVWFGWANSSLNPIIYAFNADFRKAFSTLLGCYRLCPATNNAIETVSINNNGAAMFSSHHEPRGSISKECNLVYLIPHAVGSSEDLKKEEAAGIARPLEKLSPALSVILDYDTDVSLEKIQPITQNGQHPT
Chain of Histamine H2 receptor (P25021 whole entry): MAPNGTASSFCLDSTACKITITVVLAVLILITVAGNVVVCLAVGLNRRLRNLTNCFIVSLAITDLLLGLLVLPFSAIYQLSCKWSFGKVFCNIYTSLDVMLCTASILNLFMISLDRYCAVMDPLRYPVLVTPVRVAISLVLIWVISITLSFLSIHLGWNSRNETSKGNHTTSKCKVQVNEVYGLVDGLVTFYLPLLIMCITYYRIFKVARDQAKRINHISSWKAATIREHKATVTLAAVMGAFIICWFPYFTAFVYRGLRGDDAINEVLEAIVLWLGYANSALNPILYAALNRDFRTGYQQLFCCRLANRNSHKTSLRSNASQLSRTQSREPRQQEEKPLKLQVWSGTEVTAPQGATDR
Chain of Substance-P receptor (P25103 whole entry): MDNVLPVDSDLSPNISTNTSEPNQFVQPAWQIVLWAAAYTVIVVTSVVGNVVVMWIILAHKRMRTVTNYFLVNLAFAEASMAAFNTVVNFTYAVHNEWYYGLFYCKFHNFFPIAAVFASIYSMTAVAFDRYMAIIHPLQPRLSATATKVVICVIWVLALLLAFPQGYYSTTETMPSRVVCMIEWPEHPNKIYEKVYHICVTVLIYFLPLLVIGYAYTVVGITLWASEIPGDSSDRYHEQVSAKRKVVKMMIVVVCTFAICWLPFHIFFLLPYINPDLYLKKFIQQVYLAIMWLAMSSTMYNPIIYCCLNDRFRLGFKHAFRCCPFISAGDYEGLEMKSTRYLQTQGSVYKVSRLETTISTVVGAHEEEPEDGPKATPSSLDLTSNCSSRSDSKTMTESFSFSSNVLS

For the molecule `CCCCOc1ccc(C(=O)CCN2CCCCC2)cc1` [DYCLONINE], the AC50 in assay [1] is greater than 10 µM; in assay [2], greater than 10 µM; on Histamine H2 receptor it was 3.13 µM; in assay [3], greater than 10 µM; on Substance-P receptor it was greater than 10 µM; in [4], greater than 10 µM. For the same molecule, the AC50 was greater than 30 µM in assay [5]; greater than 30 µM on Histamine H1 receptor; greater than 30 µM in [6]; greater than 30 µM at B1 bradykinin receptor; greater than 10 µM on D(1A) dopamine receptor; greater than 30 µM in [7].

As to `Fc1ccc([C@@H]2CCNC[C@H]2COc2ccc3c(c2)OCO3)cc1` [PAROXETINE], the AC50 was 25.4 µM in assay [8]; greater than 10 µM in assay [3]; greater than 10 µM in assay [4]; greater than 30 µM in assay [5]; greater than 30 µM in assay [6]; greater than 30 µM at B1 bradykinin receptor. In addition, the figures for the concentration at half-maximal activity (AC50) (at D(1A) dopamine receptor; in assay [7]) were greater than 10 µM and greater than 30 µM, respectively.

The values above are taken from ChEMBL document CHEMBL5291721, “A preclinical secondary pharmacology resource illuminates target-adverse drug reaction associations of marketed drugs” (Nat Commun, 2023).
